One assay addresses T1, PMS2 protein (Homo sapiens, UniProt P54278).
T1 construct: host or cells: SW620 human colorectal carcinoma cells
T1 sequence (P54278 1-862): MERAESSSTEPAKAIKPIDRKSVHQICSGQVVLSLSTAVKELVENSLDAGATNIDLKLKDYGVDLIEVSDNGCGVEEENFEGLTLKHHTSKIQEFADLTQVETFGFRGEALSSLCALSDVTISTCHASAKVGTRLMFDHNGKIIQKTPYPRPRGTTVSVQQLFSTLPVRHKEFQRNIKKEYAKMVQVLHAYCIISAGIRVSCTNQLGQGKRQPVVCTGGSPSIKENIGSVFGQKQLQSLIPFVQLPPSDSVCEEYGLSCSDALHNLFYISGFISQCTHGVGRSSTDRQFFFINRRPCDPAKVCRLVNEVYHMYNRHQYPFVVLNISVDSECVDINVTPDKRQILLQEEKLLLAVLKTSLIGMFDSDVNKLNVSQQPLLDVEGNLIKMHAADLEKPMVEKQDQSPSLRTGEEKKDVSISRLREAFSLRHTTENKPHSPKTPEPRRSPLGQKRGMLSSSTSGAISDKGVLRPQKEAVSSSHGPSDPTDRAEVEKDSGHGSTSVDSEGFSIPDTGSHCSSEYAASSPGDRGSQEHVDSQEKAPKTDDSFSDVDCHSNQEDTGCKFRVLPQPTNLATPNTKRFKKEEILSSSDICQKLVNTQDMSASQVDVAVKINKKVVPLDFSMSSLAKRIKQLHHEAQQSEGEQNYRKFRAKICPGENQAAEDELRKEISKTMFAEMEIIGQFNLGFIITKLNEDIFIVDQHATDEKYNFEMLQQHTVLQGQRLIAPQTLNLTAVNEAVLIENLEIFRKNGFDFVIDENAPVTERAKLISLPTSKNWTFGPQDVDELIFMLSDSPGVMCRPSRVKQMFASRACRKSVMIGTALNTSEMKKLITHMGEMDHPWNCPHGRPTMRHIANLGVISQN
The experiment in a line: PROTAC screening in SW620 human colorectal carcinoma cells, PMS2 protein level by JESS Western blot. The assay is classed as cell-based. To be noted: SW-620, 24 h, 1 uM compound, normalised to actin and DMSO control, Table A1. The method, then: PROTAC Screening Protocol Using SW620 Human Colorectal Carcinoma Cells
SVW620 cells (ATCC/[…]) were cultured in T75 Falcon flasks in culture media (F12/DMEM 1:1 media, 10% FCS, +L-G supplement). Cells were split twice a week, for a maximum of 6 weeks. Media was aspirated, and cells washed with 10 mL of sterile PBS. PBS was aspirated, and cells incubated with 1.5 mL TrypLE for up to 5 minutes at 37° C., 5% CO2. Once cells had detached, TrypLE was neutralised with 10 mL culture media and cells mixed 1:1 with Trypan blue and quantified using a Luna cell counter. Cells were then seeded into fresh T75 flasks with 1×10^6 cells and 10 mL culture media.
SW620 cells, cultured and counted as above, were used to seed 12 well plates at a density of 1.5×10^5 cells/well and incubated overnight at 37° C., 5% CO2. Test compounds were solubilized in DMSO to a stock concentration of 10 mM and serially diluted in DMSO and media to their test concentration; the final concentration of DMSO was 0.1% (v/v). Each concentration was tested in triplicate. SW620 cells were incubated with test compound for 24 hours at 37° C., 5% CO2. Media was aspirated from each well, and each well washed with 1 mL ice cold PBS. PBS was then aspirated, and 50 μL of cold lysis buffer (RIPA buffer supplemented with 1× protease inhibitors, Benzonase, MgCl) was added to each well; plates were then incubated on ice for 5 minutes. Cells were scraped using a pipette tip before being transferred to a fresh Eppendorf. Samples were spun at maximum speed in a benchtop centrifuge for 5 minutes at 4° C. and supernatant was then transferred to fresh tubes. Samples were stored at −80° C. until analysis.
Bicinchonininic acid (BCA) protein assay standards (2-0.125 mg/mL BSA) were prepared in advance. 6 μL of each standard was pipetted in duplicate into rows A and B of a 384-well assay plate. Test samples were diluted in lysis buffer (1:3-1:10) in a 384-well plate in duplicate. BCA Reagents were combined 50:1, Part A:Part B and 50 μL added to each well. Plates were incubated for 30 min at 37° C. in a plate incubator and read using a BCA protein 384 protocol on an EnSpire plate reader. Protein concentrations were calculated from a standard curve.
JESS Western Blot Protocol
Protein lysates were prepared using Protein Simple EZ standard pack reagents: 40 μL distilled H2O was added to a DTT tube (clear) and treated with 20 μL 10× sample buffer and 20 μL DTT to 5×MM tube (pink). 20 μL dH2O was added to biotinylated ladder tube (green).
Test samples were prepared by dilution to the required concentration (0.1 mg/mL) in 0.1× sample buffer. 1.25 μL 5× fluorescent master mix from the EZ standard pack was added to 5 μL sample for each lane to be loaded (e.g. 2.5 μL+10 μL if loading same sample into 2 wells). Samples were vortexed, briefly spun down and heated at 95° C. for 5 min in a PCR machine then vortexed again and briefly spun down before loading onto JESS cassettes (catalogue No: SM-W004) according to manufacturer's instructions (https://www.proteinsimple.com/technical_library.html?product=simplewestern&def_list=list). Protein expression was determined by the peak area of the target protein signal. Peak area of the target protein was normalised to peak area of the loading control (actin) and to DMSO control.
With `Cc1ncsc1-c1ccc(CNC(=O)[C@@H]2C[C@@H](O)CN2C(=O)[C@@H](NC(=O)CCCCCCCCCC(=O)N2CCN(Cc3ccc4c(c3)CN(C(=O)c3c(O)cc(O)c(C)c3OCC3CCCCC3)C4)CC2)C(C)(C)C)cc1` [Example 30, (2S,4R)-1-[(2S)-2-[[11-[4-[[2-[2-(Cyclohexylmethoxy)-4,6-dihydroxy-3-methyl-benzoyl]isoindolin-5-yl]methyl]piperazin-1-yl]-11-oxo-undecanoyl]amino]-3,3-dimethyl-butanoyl]-4-hydroxy-N-[[4-(4-methylthiazol-5-yl)phenyl]methyl]pyrrolidine-2-carboxamide], the remaining activity at 1 µM is under 10%.

As for `Cc1c(O)cc(O)c(C(=O)N2Cc3ccc(CN4CCN(CCOCCOCCOCCOCCOCCOc5cccc6c5C(=O)N(C5CCC(=O)NC5=O)C6=O)CC4)cc3C2)c1OCc1ccccc1` (centres unmarked) [Example 12, 4-((17-(4-((2-(2-(Benzyloxy)-4,6-dihydroxy-3-methylbenzoyl)isoindolin-5-yl)methyl)piperazin-1-yl)-3,6,9,12,15-pentaoxaheptadecyl)oxy)-2-(2,6-dioxopiperidin-3-yl)isoindoline-1,3-dione], the remaining activity at 1 µM lay in the range of 10 to 25%.

`Cc1c(O)cc(O)c(C(=O)N2Cc3ccc(CN4CCN(CCOCCOCCOCCNc5ccc6c(c5)CN(C5CCC(=O)NC5=O)C6=O)CC4)cc3C2)c1OCc1ccccc1` (centres unmarked) [Example 16, 3-(5-((2-(2-(2-(2-(4-((2-(2-(Benzyloxy)-4,6-dihydroxy-3-methylbenzoyl)isoindolin-5-yl)methyl)piperazin-1-yl)ethoxy)ethoxy)ethoxy)ethyl)amino)-1-oxoisoindolin-2-yl)piperidine-2,6-dione] came in with a remaining activity at 1 µM of 25 to 50%.

In the case of `Cc1c(O)cc(O)c(C(=O)N2Cc3ccc(CN4CCN(CCOCCOCCOCCOCCNc5cccc6c5C(=O)N(C5CCC(=O)NC5=O)C6=O)CC4)cc3C2)c1OCC1CCCCC1` (centres unmarked) [Example 6, 4-[2-[2-[2-[2-[2-[4-[[2-[2-(Cyclohexylmethoxy)-4,6-dihydroxy-3-methyl-benzoyl]isoindolin-5-yl]methyl]piperazin-1-yl]ethoxy]ethoxy]ethoxy]ethoxy]ethylamino]-2-(2,6-dioxo-3-piperidyl)isoindoline-1,3-dione], the remaining activity at 1 µM is under 10%.

For `Cc1c(O)cc(O)c(C(=O)N2Cc3ccc(C(=O)N4CCC(CN5CCN(c6cc7c(cc6F)C(=O)N(C6CCC(=O)NC6=O)C7=O)CC5)CC4)cc3C2)c1OCc1ccccc1` (centres unmarked) [Example 23, 5-(4-((1-(2-(2-(Benzyloxy)-4,6-dihydroxy-3-methylbenzoyl)isoindoline-5-carbonyl)piperidin-4-yl)methyl)piperazin-1-yl)-2-(2,6-dioxopiperidin-3-yl)-6-fluoroisoindoline-1,3-dione], the remaining activity at 1 µM fell in the range of 10 to 25%.

The compound `Cc1c(O)cc(O)c(C(=O)N2Cc3ccc(CN4CCN(CCOCCOCCOCCOCCOCCNc5cccc6c5C(=O)N(C5CCC(=O)NC5=O)C6=O)CC4)cc3C2)c1OCC1CCCCC1` (centres unmarked) [Example 7, 4-[2-[2-[2-[2-[2-[2-[4-[[2-[2-(Cyclohexylmethoxy)-4,6-dihydroxy-3-methyl-benzoyl]isoindolin-5-yl]methyl]piperazin-1-yl]ethoxy]ethoxy]ethoxy]ethoxy]ethoxy]ethylamino]-2-(2,6-dioxo-3-piperidyl)isoindoline-1,3-dione] registered a remaining activity at 1 µM of 10 to 25%.

Regarding `Cc1c(O)cc(O)c(C(=O)N2Cc3ccc(CN4CCN(CCOCCOCCOCCOc5cccc6c5C(=O)N(C5CCC(=O)NC5=O)C6=O)CC4)cc3C2)c1OCc1ccccc1` (centres unmarked) [Example 9, 4-(2-(2-(2-(2-(4-((2-(2-(Benzyloxy)-4,6-dihydroxy-3-methylbenzoyl)isoindolin-5-yl)methyl)piperazin-1-yl)ethoxy)ethoxy)ethoxy)ethoxy)-2-(2,6-dioxopiperidin-3-yl)isoindoline-1,3-dione], the remaining activity at 1 µM is 10 to 25%.

For `Cc1c(O)cc(O)c(C(=O)N2Cc3ccc(CN4CCC(CC(=O)N5CCN(c6ccc7c(c6)CN(C6CCC(=O)NC6=O)C7=O)CC5)CC4)cc3C2)c1OCC1CCCCC1` (centres unmarked) [Example 20, 3-(5-(4-(2-(1-((2-(2-(Cyclohexylmethoxy)-4,6-dihydroxy-3-methylbenzoyl)isoindolin-5-yl)methyl)piperidin-4-yl)acetyl)piperazin-1-yl)-1-oxoisoindolin-2-yl)piperidine-2,6-dione], the remaining activity at 1 µM is 10 to 25%.

`Cc1c(O)cc(O)c(C(=O)N2Cc3ccc(CN4CCN(CCOCCOCCNc5cccc6c5C(=O)N(C5CCC(=O)NC5=O)C6=O)CC4)cc3C2)c1OCc1ccccc1` (centres unmarked) [Example 2, 4-((2-(2-(2-(4-((2-(2-(Benzyloxy)-4,6-dihydroxy-3-methylbenzoyl)isoindolin-5-yl)methyl)piperazin-1-yl)ethoxy)ethoxy)ethyl)amino)-2-(2,6-dioxopiperidin-3-yl)isoindoline-1,3-dione] registered a remaining activity at 1 µM of 25 to 50%.

As for `Cc1c(O)cc(O)c(C(=O)N2Cc3ccc(CN4CCN(CCOCCOCCOCCOCCNc5cccc6c5C(=O)N(C5CCC(=O)NC5=O)C6=O)CC4)cc3C2)c1OCc1ccccc1` (centres unmarked) [Example 3, 4-((14-(4-((2-(2-(Benzyloxy)-4,6-dihydroxy-3-methylbenzoyl)isoindolin-5-yl)methyl)piperazin-1-yl)-3,6,9,12-tetraoxatetradecyl)amino)-2-(2,6-dioxopiperidin-3-yl)isoindoline-1,3-dione], the remaining activity at 1 µM lay in the range of 10 to 25%.

For the compound `Cc1c(O)cc(O)c(C(=O)N2Cc3ccc(CN4CCN(CCOCCOCCOCCOCCOCCNc5cccc6c5C(=O)N(C5CCC(=O)NC5=O)C6=O)CC4)cc3C2)c1OCc1ccccc1` (centres unmarked) [Example 4, 4-((17-(4-((2-(2-(Benzyloxy)-4,6-dihydroxy-3-methylbenzoyl)isoindolin-5-yl)methyl)piperazin-1-yl)-3,6,9,12,15-pentaoxaheptadecyl)amino)-2-(2,6-dioxopiperidin-3-yl)isoindoline-1,3-dione], the remaining activity at 1 µM is under 10%.

In the case of `Cc1c(O)cc(O)c(C(=O)N2Cc3ccc(CN4CCN(CCOCCOCCOCCOCCOc5cccc6c5C(=O)N(C5CCC(=O)NC5=O)C6=O)CC4)cc3C2)c1OCc1ccccc1` (centres unmarked) [Example 11, 4-((14-(4-((2-(2-(Benzyloxy)-4,6-dihydroxy-3-methylbenzoyl)isoindolin-5-yl)methyl)piperazin-1-yl)-3,6,9,12-tetraoxatetradecyl)oxy)-2-(2,6-dioxopiperidin-3-yl)isoindoline-1,3-dione], the remaining activity at 1 µM was 10 to 25%.

The same assay, now with this note: SW-620, 24 h, 1 uM compound, upon further testing, Table A2.
`Cc1c(O)cc(O)c(C(=O)N2Cc3ccc(CN4CCN(CCOCCOCCOCCOCCOCCOc5cccc6c5C(=O)N(C5CCC(=O)NC5=O)C6=O)CC4)cc3C2)c1OCc1ccccc1` (centres unmarked) [Example 12, 4-((17-(4-((2-(2-(Benzyloxy)-4,6-dihydroxy-3-methylbenzoyl)isoindolin-5-yl)methyl)piperazin-1-yl)-3,6,9,12,15-pentaoxaheptadecyl)oxy)-2-(2,6-dioxopiperidin-3-yl)isoindoline-1,3-dione]: the remaining activity at 1 µM was under 10%.

The compound `Cc1c(O)cc(O)c(C(=O)N2Cc3ccc(CN4CCN(CCOCCOCCNc5cccc6c5C(=O)N(C5CCC(=O)NC5=O)C6=O)CC4)cc3C2)c1OCc1ccccc1` (centres unmarked) [Example 2, 4-((2-(2-(2-(4-((2-(2-(Benzyloxy)-4,6-dihydroxy-3-methylbenzoyl)isoindolin-5-yl)methyl)piperazin-1-yl)ethoxy)ethoxy)ethyl)amino)-2-(2,6-dioxopiperidin-3-yl)isoindoline-1,3-dione] returned a remaining activity at 1 µM of 10 to 25%.
